According to patent publication US12637703B2, “Compositions and methods for detection of oxidizable analytes” (President and Fellows of Harvard College, priority 2019, dated 2026):

What was measured:
[1] = Fluorescence of dyes with hydrogen peroxide in HRP-free buffer; assay type: physicochemical; conditions: 400-fold molar excess of hydrogen peroxide
Protocol: NIR dyes were dissolved in water (sulfo-cyanine dyes, Lumiprobe, Hannover, Germany, and all investigated IRDyes except for IRDye 800RS, LI-COR Biosciences, Lincoln, NE) or dimethyl sulfoxide (Sigma Aldrich, St. Louis, MO; cyanine dyes, Lumiprobe, and IRDye 80016, LI-COR Biosciences). 10 μL of dye solution ([…] Peroxide/Peroxidase Assay Kit A22188, Thermo Fisher Scientific, Waltham, MA) in sodium chloride-containing phosphate buffer (Sigma Aldrich) 50 mM at pH 7.5 at 300 mOsmol/kg and protected from light. After 10 min at room temperature, the fluorescence intensity was determined by a plate reader (BioTek NEO2, BioTek, Winooski, VT) at the fluorescence excitation and emission wavelength provided by the manufacturer.

[2] = target: T1, horseradish peroxidase (HRP) (Armoracia rusticana, UniProt P00433); assay: Screening of NIR dye library for HRP substrates (hydrogen peroxide-dependent loss of fluorescence); assay type: biochemical; conditions: for oxidation by HRP (loss of fluorescence) at different hydrogen peroxide concentrations: NIR dye 2.5 μM, HRP 105 mU/mL, phosphate buffer 50 mM pH 7.5; for oxidation by HRP (loss of fluorescence) at different hydrogen peroxide concentrations / hydrogen peroxide sensing profile (loss in relative fluorescence intensity): 10 min room temperature; for hydrogen peroxide sensing profile (loss in relative fluorescence intensity): different dye concentrations, HRP-containing buffer pH 7.5; for enzymatic oxidation by HRP, positive controls of the library screening: known HRP substrates, homovanillic acid 0.99 mM, HRP 0.10 U/mL, 10 min, Amplex Red 30 min, room temperature
T1 construct: purchased Thermo Fisher Scientific A22188
T1 sequence (P00433 31-338): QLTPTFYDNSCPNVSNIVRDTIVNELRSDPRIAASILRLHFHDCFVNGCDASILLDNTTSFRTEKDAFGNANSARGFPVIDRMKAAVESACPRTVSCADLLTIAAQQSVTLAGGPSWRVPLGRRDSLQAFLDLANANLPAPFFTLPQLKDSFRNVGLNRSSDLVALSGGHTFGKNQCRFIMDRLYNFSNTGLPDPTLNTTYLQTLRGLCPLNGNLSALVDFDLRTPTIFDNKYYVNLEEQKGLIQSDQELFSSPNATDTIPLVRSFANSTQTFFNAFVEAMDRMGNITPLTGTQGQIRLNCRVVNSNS
Protocol: FIGS. 2A-2C are related to screening of near-infrared (NIR) dye library for HRP substrates. NIR dye concentration: 2.5 μM; HRP concentration: 105 mU/mL; buffer composition: phosphate buffer 50 mM at pH 7.5; 10 min incubation time at room temperature. All results as means+SD (n=3).
FIG. 2E is a graph showing the relative fluorescence intensity of a homovanillic acid-containing solution in the presence of hydrogen peroxide and HRP, therefore evaluating hydrogen peroxide sensing with homovanillic acid (a known substrate of HRP) and HRP. HRP catalyzes the dimerization of homovanillic acid to a fluorescent product in the presence of hydrogen peroxide. HRP concentration: 0.10 U/mL; homovanillic acid: 0.99 mM; λex 312 nm; λem 430 nm; incubation time 10 min at room temperature. All results as mean±SD (n=3).
FIG. 2F is a graph showing the relative fluorescence intensity of an Amplex Red®-containing solution in the presence of hydrogen peroxide and HRP, therefore evaluating hydrogen peroxide sensing with Amplex Red® (a known substrate of HRP) and HRP. HRP catalyzes the oxidation of Amplex Red® to the fluorescent product resorufin in the presence of hydrogen peroxide. Excitation/emission wavelengths: λex 530 nm; λem 590 nm; incubation time 30 min at room temperature. Assay conducted in accordance to manufacturer's instructions. All results as mean±SD (n=3).
FIGS. 3B-3E are related to hydrogen peroxide sensing using HRP-mediated S7 oxidation. NIR dye concentration unless stated: 10 μM (FIG. 3C), 7.5 μM (FIG. 3D); HRP concentration: 105 mU/mL (FIG. 3B); buffer composition: phosphate buffer 50 mM at pH 7.5; 10 (FIGS. 3B, 3D) or 30 min (FIG. 3E) incubation time at room temperature. […] All results as means+SD (n=3).
NIR dyes were dissolved in water (sulfo-cyanine dyes, Lumiprobe, Hannover, Germany, and all investigated IRDyes except for IRDye 800RS, LI-COR Biosciences, Lincoln, NE) or dimethyl sulfoxide (Sigma Aldrich, St. Louis, MO; cyanine dyes, Lumiprobe, and IRDye 80016, LI-COR Biosciences). 10 μL of dye solution (final 2.5 μM) were added to 100 uL of HRP solution (final 105 mU/mL) and hydrogen peroxide standards (both from Amplex™ Red Hydrogen Peroxide/Peroxidase Assay Kit A22188, Thermo Fisher Scientific, Waltham, MA) in sodium chloride-containing phosphate buffer (Sigma Aldrich) 50 mM at pH 7.5 at 300 mOsmol/kg and protected from light. After 10 min at room temperature, the fluorescence intensity was determined by a plate reader (BioTek NEO2, BioTek, Winooski, VT) at the fluorescence excitation and emission wavelength provided by the manufacturer.
To determine the absorbance spectra of S7, 10 μL of dye solution (final 7.5 μM) were added to 100 μL of HRP solution (final 105 mU/mL) and hydrogen peroxide standards in isotonic phosphate buffer 50 mM at pH 7.5. After 15 min, the absorbance spectra were recorded by a plate reader (BioTek NEO2).

[3] = Superoxide testing (SOTS-1 as superoxide radical source); assay type: physicochemical; conditions: 100-fold excess of superoxide radical (SOTS-1); 30 min room temperature; pH 7.5
Protocol: FIG. 3E is a graph showing the relative fluorescence intensity of several NIR dyes and the superoxide-sensitive dye DHE (positive control) at different concentrations of the superoxide radical source SOTS-1 (E).
Superoxide was generated in accordance with the literature. In brief, SOTS-1 (Cayman Chemicals, Ann Arbor, MI) was dissolved in dimethylformamide (Sigma Aldrich) and added to a near-infrared fluorescent dye-containing ([…]; DHE concentration 10 μM) isotonic phosphate buffer 50 mM at pH 7.5 ([…]) and protected from light. After 30 min at room temperature, the fluorescence intensity was determined by a plate reader (BioTek NEO2) at the fluorescence excitation and emission wavelength provided by the manufacturer.

Compound | fluorescence properties upon exposure to hydrogen peroxide without HRP [1] | hydrogen peroxide sensing profile (loss in relative fluorescence intensity) [2] | fluorescence emission in the presence of superoxide radical [3] | oxidation by HRP (loss of fluorescence) at different hydrogen peroxide concentrations [2] | enzymatic oxidation by HRP, positive controls of the library screening [2]
CC1(C)C(/C=C/C=C/C=C/C=C2\N(CCCCS(=O)(=O)O)c3ccc4ccccc4c3C2(C)C)=[N+](CCCCS(=O)(=O)[O-])c2ccc3ccccc3c21 [ICG, indocyanine green] | preserved their fluorescence properties | linear hydrogen peroxide sensing profile |  | oxidized by HRP in a hydrogen peroxide concentration-dependent manner | 
COc1cc(CC(=O)O)ccc1O [homovanillic acid] |  |  |  |  | enzymatically oxidized in a hydrogen peroxide-dependent manner
CC(=O)N1c2ccc(O)cc2Oc2cc(O)ccc21 [Amplex Red®] |  |  |  |  | enzymatically oxidized in a hydrogen peroxide-dependent manner

Further lines, with some results ahead:

fluorescence properties upon exposure to hydrogen peroxide without HRP [1] | hydrogen peroxide sensing profile (loss in relative fluorescence intensity) [2] | fluorescence emission in the presence of superoxide radical [3] | Compound | oxidation by HRP (loss of fluorescence) at different hydrogen peroxide concentrations [2] | enzymatic oxidation by HRP, positive controls of the library screening [2]
preserved their fluorescence properties | followed a sigmoid curve | preserved their fluorescence emission | sulfo-cyanine 7 [S7] | oxidized by HRP in a hydrogen peroxide concentration-dependent manner | 
 |  | preserved their fluorescence emission | CN1/C(=C/C=C/C=C/C2=[N+](CCCCCC(=O)O)c3ccc(S(=O)(=O)O)cc3C2(C)C)C(C)(C)c2cc(S(=O)(=O)O)ccc21 [sulfo-cyanine 5] |  | 
